Series [1] is described as follows: Inhibition of beta-lactamase TEM1 at 100 uM.
The target in series [2] is T1, MecA (Staphylococcus aureus) (UniProt Q7DHH4).
T1 sequence (whole entry): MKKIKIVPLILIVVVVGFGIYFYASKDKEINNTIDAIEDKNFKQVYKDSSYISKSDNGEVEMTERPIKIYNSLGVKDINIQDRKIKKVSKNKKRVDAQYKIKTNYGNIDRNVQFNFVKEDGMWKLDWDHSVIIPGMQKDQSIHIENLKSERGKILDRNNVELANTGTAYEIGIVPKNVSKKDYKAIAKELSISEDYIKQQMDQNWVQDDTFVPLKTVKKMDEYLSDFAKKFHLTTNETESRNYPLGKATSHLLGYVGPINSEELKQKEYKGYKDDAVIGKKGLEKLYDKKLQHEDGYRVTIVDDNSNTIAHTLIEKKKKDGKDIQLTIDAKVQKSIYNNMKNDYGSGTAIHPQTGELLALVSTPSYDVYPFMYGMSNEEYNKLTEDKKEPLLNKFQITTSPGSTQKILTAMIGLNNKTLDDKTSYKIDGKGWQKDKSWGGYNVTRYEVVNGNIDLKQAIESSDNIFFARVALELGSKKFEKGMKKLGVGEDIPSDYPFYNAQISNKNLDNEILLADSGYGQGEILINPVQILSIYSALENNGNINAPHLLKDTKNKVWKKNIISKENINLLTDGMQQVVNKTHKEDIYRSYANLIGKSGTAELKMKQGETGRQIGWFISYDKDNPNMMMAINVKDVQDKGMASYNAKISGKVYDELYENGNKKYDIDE
Kind of series: Inhibition of methicillin-resistant Staphylococcus aureus ATCC […] PBP2a assessed as residual activity at 100 uM after 16 hrs. The following applies: values are per cent of control.

In series [3] the target is D-alanyl-D-alanine carboxypeptidase (Actinomadura sp. R39) (UniProt P39045). Put plainly: Residual activity of Actinomadura R39 DD-peptidase at 100 uM after 16 hrs.
In a further series the test system is Enterococcus faecium. Put plainly: Residual activity of Enterococcus faecium PBP5fm at 100 uM after 16 hrs.
A short description of series [4]: Chemical stability assessed as hydrolysis half life. Format: physicochemical.
The target in series [5] is T2, Penicillin-binding protein 2x (Streptococcus pneumoniae serotype 4 (strain ATCC BAA-334 / TIGR4)) (UniProt P14677).
T2 sequence (whole entry): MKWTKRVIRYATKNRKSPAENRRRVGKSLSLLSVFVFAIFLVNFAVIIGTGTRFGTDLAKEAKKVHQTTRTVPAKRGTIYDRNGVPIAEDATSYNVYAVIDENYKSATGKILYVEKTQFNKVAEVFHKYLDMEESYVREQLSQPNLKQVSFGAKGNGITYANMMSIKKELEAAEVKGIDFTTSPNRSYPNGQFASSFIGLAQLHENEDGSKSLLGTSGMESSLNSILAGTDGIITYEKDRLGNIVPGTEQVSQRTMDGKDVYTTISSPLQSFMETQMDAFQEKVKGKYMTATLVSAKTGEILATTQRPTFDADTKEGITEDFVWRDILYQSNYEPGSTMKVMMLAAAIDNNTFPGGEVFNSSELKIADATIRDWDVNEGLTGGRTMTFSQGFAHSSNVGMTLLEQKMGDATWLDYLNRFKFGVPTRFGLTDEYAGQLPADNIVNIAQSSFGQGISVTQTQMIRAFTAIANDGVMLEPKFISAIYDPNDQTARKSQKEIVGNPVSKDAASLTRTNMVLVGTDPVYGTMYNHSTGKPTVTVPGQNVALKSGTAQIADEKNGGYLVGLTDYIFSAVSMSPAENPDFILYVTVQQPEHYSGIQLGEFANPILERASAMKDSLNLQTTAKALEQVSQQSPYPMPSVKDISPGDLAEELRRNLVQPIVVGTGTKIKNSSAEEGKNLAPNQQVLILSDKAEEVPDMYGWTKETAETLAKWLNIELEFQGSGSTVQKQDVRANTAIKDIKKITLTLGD
Put plainly: Residual activity of Streptococcus pneumoniae 5204 PBP2x at 100 uM after 16 hrs.

In series [6] the target is Chymotrypsin-like elastase family member 1 (Sus scrofa) (UniProt P00772). Put plainly: Inhibition of pig pancreatic elastase assessed as formation of p-nitroaniline at 100 uM.
Sequence of Chymotrypsin-like elastase family member 1 (Sus scrofa) (P00772 whole entry): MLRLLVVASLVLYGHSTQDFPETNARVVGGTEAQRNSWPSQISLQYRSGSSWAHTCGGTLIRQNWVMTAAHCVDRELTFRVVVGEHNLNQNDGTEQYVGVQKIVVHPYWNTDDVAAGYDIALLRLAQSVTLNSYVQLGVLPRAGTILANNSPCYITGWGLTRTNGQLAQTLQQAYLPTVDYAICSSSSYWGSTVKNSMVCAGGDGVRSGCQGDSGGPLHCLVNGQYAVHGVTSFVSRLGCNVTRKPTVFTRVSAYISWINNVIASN
For series [7] the target is unchanged. Put plainly: Reversible inhibition of pig pancreatic elastase at 1 to 100 uM preincubated for 40 mins before addition of N-succinyl-L-alanyl-Lalanyl- L-alanyl-p-nitroanilide by incubation/dilution method.
Series [8] shares this target. Put plainly: Reversible inhibition of pig pancreatic elastase at 1 to 100 uM preincubated for 60 mins before addition of N-succinyl-L-alanyl-Lalanyl- L-alanyl-p-nitroanilide by incubation/dilution method.
Series [9] shares this target. Put plainly: Inhibition of pig pancreatic elastase assessed as formation of p-nitroaniline at 1 uM.
For series [10] the target is unchanged. Put plainly: Reversible inhibition of pig pancreatic elastase at 1 to 100 uM preincubated for 20 mins before addition of N-succinyl-L-alanyl-Lalanyl- L-alanyl-p-nitroanilide by incubation/dilution method.

The structures appear in SMILES notation. Calls of active or inactive are those of the source. A value given as a limit tells only on which side of the number the result lay.

The term residual activity denotes the signal under treatment as a percentage of the control signal. Broadly, the half-life is the time needed for the level to fall by half in the phase considered.

For `CC(=O)O[C@@H]1[C@@H]2C(=O)N1C(=O)CCCCCCC(=O)O[C@@H]2C`, the inhibition entry in series [1] and in series [6] was “inactive” in each case. Also, the residual activity is 94% in [2], 113% in series [3], 113% with Enterococcus faecium and 99% in [5]. In addition, the half-life in series [4] was 4 h.
Regarding `CC1(C)S[C@@H]2[C@H](NC(=O)Cc3ccccc3)C(=O)N2[C@H]1C(=O)O`, the residual activity in [2] is 13%; with Enterococcus faecium, 10%; in series [5] it was less than 5%.
Take `C=CCCC(=O)O[C@H](C)[C@H]1C(=O)N(C(=O)CCC=C)[C@@H]1OC(C)=O`: in series [1], the inhibition result is “inactive”. Moreover, the residual activity came out at 66% in [2], 14% in [3], 84% in the series with Enterococcus faecium and 93% in [5]. Further, the inhibition result in series [7], in series [8], in series [9] and in [10] was “Active” in each case. Moreover, in series [4], the half-life was 16 h.
`CC(=O)O[C@@H]1[C@@H]2C(=O)N1C(=O)CC/C=C/CCC(=O)O[C@@H]2C`: the inhibition entry in series [1] and in series [6] was “inactive” each time. Besides, the residual activity in series [2] worked out at 86%; in series [3], 96%; in the series on Enterococcus faecium it was 104%; in series [5] it was 116%. Moreover, in series [4], the half-life was 6 h.

The record behind these values is ChEMBL document CHEMBL1158360, “Large ring 1,3-bridged 2-azetidinones: experimental and theoretical studies” (Eur J Med Chem, 2009).
